According to paper PMC12655637, “Design, Synthesis, and Mechanistic Study of Novel Ciprofloxacin/Thiazole Chalcone Hybrids as Potential Anticancer Agents” (Pharmaceuticals, 2025):

Key:
Test in all cases: NCI-60 screening, one-dose (10 µM) and five-dose, SRB
CCRF-CEM = assay type: cell-based, human; conditions: Homo sapiens, 10 μM, Leukemia, read-out: Growth percentage
K-562 = assay type: cell-based, human; conditions: Homo sapiens, K562, 10 μM; K-562, Leukemia; read-out: Growth percentage
MOLT-4 = assay type: cell-based, human; conditions: Homo sapiens; 10 μM; MOLT-4, Leukemia; read-out: Growth percentage
SR = assay type: cell-based, human; conditions: 10 μM, Leukemia
A549/ATCC = assay type: cell-based, human; conditions: Homo sapiens, 10 μM, Non-Small-Cell Lung Cancer, read-out: Growth percentage
EKVX = assay type: cell-based, human; conditions: Homo sapiens, 10 μM, Non-Small-Cell Lung Cancer, read-out: Growth percentage
HOP-92 = assay type: cell-based, human; conditions: Homo sapiens; 10 μM; HOP-92, Non-Small-Cell Lung Cancer; read-out: Growth percentage
NCI-H23 = assay type: cell-based, human; conditions: Homo sapiens; 10 μM; NCI-H23, Non-Small-Cell Lung Cancer; read-out: Growth percentage
HCC-2998 = assay type: cell-based, human; conditions: Homo sapiens; 10 μM; HCC-2998, Colon Cancer; read-out: Growth percentage
HCT-116 = assay type: cell-based, human; conditions: Homo sapiens
HCT-15 = assay type: cell-based, human; conditions: Homo sapiens; 10 μM; HCT-15, Colon Cancer; read-out: Growth percentage
HT29 = assay type: cell-based, human; conditions: Homo sapiens, HT-29; 10 μM; HT29, Colon Cancer; read-out: Growth percentage
KM12 = assay type: cell-based, human; conditions: Homo sapiens, KM12, 10 μM; KM12, Colon Cancer; read-out: Growth percentage
SF-295 = assay type: cell-based, human; conditions: Homo sapiens; 10 μM; SF-295, CNS Cancer; read-out: Growth percentage
SF-539 = assay type: cell-based, human; conditions: Homo sapiens, SF-539, 10 μM; SF-539, CNS Cancer; read-out: Growth percentage
SNB-75 = assay type: cell-based, human; conditions: Homo sapiens; 10 μM; SNB-75, CNS Cancer; read-out: Growth percentage
U251 = assay type: cell-based, human; conditions: Homo sapiens, U-251; 10 μM; U251, CNS Cancer; read-out: Growth percentage
MDA-MB-435 = assay type: cell-based; conditions: Homo sapiens, MDA-MB-435, read-out: Growth percentage, 10 μM; MDA-MB-435, Melanoma
OVCAR-5 = assay type: cell-based, human; conditions: 10 μM; OVCAR-5, Ovarian Cancer
NCI/ADR-RES = assay type: cell-based, human; conditions: Homo sapiens, 10 μM, Ovarian Cancer, read-out: Growth percentage
SK-OV-3 = assay type: cell-based, human; conditions: Homo sapiens; 10 μM; SK-OV-3, Ovarian Cancer; read-out: Growth percentage
A498 = assay type: cell-based; conditions: Homo sapiens, A498, 10 μM; A498, Renal Cancer; read-out: Growth percentage
ACHN = assay type: cell-based, human; conditions: Homo sapiens, 10 μM, Renal Cancer, read-out: Growth percentage
RXF 393 = assay type: cell-based; conditions: Homo sapiens; 10 μM; RXF 393, Renal Cancer; read-out: Growth percentage
TK-10 = assay type: cell-based, human; conditions: Homo sapiens; 10 μM; TK-10, Renal Cancer; read-out: Growth percentage
PC-3 = assay type: cell-based, human; conditions: Homo sapiens; 10 μM; PC-3, Prostate Cancer; read-out: Growth percentage
MDA-MB231/ATCC = assay type: cell-based; conditions: 10 μM; MDA-MB231/ATCC, Breast Cancer
HS 578T = assay type: cell-based, human; conditions: Homo sapiens, 10 μM, Breast Cancer, read-out: Growth percentage
BT-549 = assay type: cell-based; conditions: Homo sapiens; 10 μM; BT-549, Breast Cancer; read-out: Growth percentage
T-47D = assay type: cell-based, human; conditions: 10 μM, Breast Cancer
MDA-MB-468 = assay type: cell-based, human; conditions: Homo sapiens, MDA-MB-468, 10 μM; MDA-MB-468, Breast Cancer; read-out: Growth percentage
Source text: Control cells Test cells FLD
available usually at NCI library.
An aliquot of frozen drug concentrate is […]

SMILES: Cc1nc(SCC(=O)N2CCN(c3cc4c(cc3F)c(=O)c(C(=O)O)cn4C3CC3)CC2)sc1C(=O)/C=C/c1ccc(Cl)cc1 [Compound 4c, (E)-7-(4-(2-((5-(3-(4-Chlorophenyl)acryloyl)-4-methylthiazol-2-yl)thio)acetyl)piperazin-1-yl)-1-cyclopropyl-6-fluoro-4-oxo-1,4-dihydroquinoline-3-carboxylic Acid]
- activity at 10 µM (CCRF-CEM): 102%
- activity at 10 µM (K-562): 93.1%
- activity at 10 µM (MOLT-4): 103%
- Growth percentage (SR): 35.32%
- activity at 10 µM (A549/ATCC): 115%
- activity at 10 µM (EKVX): 103%
- activity at 10 µM (HOP-92): 119%
- activity at 10 µM (NCI-H23): 96.5%
- activity at 10 µM (HCC-2998): 104%
- activity at 10 µM (HCT-116; HCT-116, 10 μM, HCT-116, Colon Cancer, read-out: Growth percentage): 61%
- IC50 (HCT-116; colon HCT-116): 340 nM
- activity at 10 µM (HCT-15): 102%
- activity at 10 µM (HT29): 108%
- activity at 10 µM (KM12): 104%
- activity at 10 µM (SF-295): 102%
- activity at 10 µM (SF-539): 97.7%
- activity at 10 µM (SNB-75): 95.6%
- activity at 10 µM (U251): 111%
- activity at 10 µM (MDA-MB-435): 102%
- Growth percentage (OVCAR-5): 100.3%
- activity at 10 µM (NCI/ADR-RES): 98.9%
- activity at 10 µM (SK-OV-3): 129%
- activity at 10 µM (A498): 119%
- activity at 10 µM (ACHN): 96.4%
- activity at 10 µM (RXF 393): 109%
- activity at 10 µM (TK-10): 106%
- activity at 10 µM (PC-3): 100%
- Growth percentage (MDA-MB231/ATCC): 100.1%
- activity at 10 µM (HS 578T): 105%
- activity at 10 µM (BT-549): 85.9%
- Growth percentage (T-47D): 116.3%
- activity at 10 µM (MDA-MB-468): 110%
